From PubChem BioAssay (NCI)
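96-well plates; 48 h exposure; 5 concentrations. Endpoints by linear interpolation between flanking doses. Not reached: highest tested concentration assigned. TGI: concentration producing complete growth inhibition.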

system: HOP-62 NSCLC; experiment: NCI anticancer screen, dose series, 48 h

Q: For OC1=C2c3ccccc3NC2Oc2cc(F)ccc21 (configuration not stated), which TGI is on record?
A: 33.2 µM

system: HS 578T breast; experiment: NCI anticancer screen, dose series, 48 h

Q: With CCOc1cccc(C=Nc2ccccc2SSc2ccccc2N=Cc2cccc(OCC)c2O)c1O as the compound, how does the TGI read?
A: 90.7 µM

Q: How did the TGI turn out when Cc1c2c(cc3c1C(=O)C(=O)C([C@@H](C)CO)=C3O)C(C)(C)CCC2 was run?
A: > 100 µM

Q: How did the TGI turn out when C[N+]12CCCCC1C(COc1cccc3cccnc13)CCC2 (configuration not stated) was run?
A: > 100 µM

Q: Cc1ccc(S(=O)(=O)NC(=O)NCc2ccc(S(N)(=O)=O)cc2)cc1 was tested. Which TGI did it give?
A: > 100 µM

Q: NC(=O)NC1NC(=O)NC1=O (configuration not stated) was tested. Which TGI did it give?
A: > 100 µM

Q: CC[C@@]1(O)C(=O)OCc2c1cc1n(c2=O)Cc2c-1nc1ccccc1c2/C=N\NC(=O)C[n+]1ccccc1 was tested. Which TGI did it give?
A: > 100 µM

Q: With COc1ccccc1C[C@@H]1OC2(C=CC(=O)CC2SC(=O)c2ccccc2)O[C@H]1Cc1ccccc1OC (some centres not stated) as the compound, how does the TGI read?
A: 4.73 µM

Q: COc1ccc(CC2Cc3ccccc3CCN2)cc1OC (configuration not stated) was tested. Which TGI did it give?
A: > 50 µM

Q: CN(C)CCn1c(=O)c2ccc(NCCNCCO)c3c(=O)c4ccccc4n(c1=O)c23 was tested. Which TGI did it give?
A: 1.37 µM

Q: With OCC1OC(NC(=S)NCCC(F)(F)C(F)(F)C(F)(F)C(F)(F)C(F)(F)C(F)(F)F)C(O)C(O)C1O (configuration not stated) as the compound, how does the TGI read?
A: > 100 µM

Q: How did the TGI turn out when CSC1=N/C(=C\c2ccc(C)cc2)C(=O)N1 was run?
A: > 100 µM

Q: How did the TGI turn out when COc1cc2c(cc1OCCCNC(=O)c1cc3ccccc3[nH]1)N=C[C@@H]1CCCN1C2=O was run?
A: 0.562 µM

Q: How did the TGI turn out when COC(=O)/C(C)=N/NC(=S)SC was run?
A: > 100 µM

Q: With CC1=CC[C@H](C[C@H](C#CCCCC2OCCO2)O[Si](C(C)C)(C(C)C)C(C)C)C(=O)CC1 as the compound, how does the TGI read?
A: > 100 µM

Q: CC1=NN(c2cccc(S(=O)(=O)O)c2)C2(C1)C(Cl)C(=O)N2c1nc2ccccc2s1 (configuration not stated) was tested. Which TGI did it give?
A: > 80.7 µM

Q: With [O-][n+]1nc(N2CCOCC2)nc2ccccc21 as the compound, how does the TGI read?
A: > 100 µM

Q: COc1ccc(NC(=S)Nc2cc(C)ccn2)cc1 was tested. Which TGI did it give?
A: > 100 µM

Q: Which TGI does the source give for Cc1sc2nc(N(C)C)oc(=O)c2c1C here?
A: > 100 µM

Q: With Cc1cccc(N/C(=C(/C(Cl)=C(Cl)Cl)[N+](=O)[O-])n2nnc3ccccc32)c1 as the compound, how does the TGI read?
A: 21.8 µM

Q: With NC(CSS(=O)(=O)O)=NC1CC2CCC1C2 (configuration not stated) as the compound, how does the TGI read?
A: > 100 µM

Q: For CN1CCC23c4c5ccc(Oc6nnnn6-c6ccccc6)c4OC2c2[nH]c4ccccc4c2CC3(O)C1C5 (configuration not stated), which TGI is on record?
A: 33.9 µM

Q: Which TGI does the source give for Cc1cn(C2OC(CO[Si](C)(C)C(C)(C)C)/C(=C\C#N)C2O[Si](C)(C)C(C)(C)C)c(=O)[nH]c1=O (configuration not stated) here?
A: > 100 µM

Q: For C[C@]12CCC(O)CC1=CC[C@@H]1[C@@H]2CC[C@]2(C)C(O)[C@H](n3ccnc3)C[C@@H]12 (some centres not stated), which TGI is on record?
A: > 100 µM

Q: With O=C(CC(O)(C(F)(F)F)C(F)(F)F)C(c1ccccc1)C(O)(C(F)(F)F)C(F)(F)F (configuration not stated) as the compound, how does the TGI read?
A: 41.8 µM

Q: With CC(C)CCCC(C)[C@H]1CC[C@H]2n3c(nnc3-c3ccccc3)CCC[C@]12C (some centres not stated) as the compound, how does the TGI read?
A: 43.3 µM

Q: Which TGI does the source give for OC1=C2c3ccccc3NC2Oc2cc(F)ccc21 (configuration not stated) here?
A: > 100 µM

system: HT29 colon; experiment: NCI anticancer screen, dose series, 48 h

Q: How did the TGI turn out when CCOc1cccc(C=Nc2ccccc2SSc2ccccc2N=Cc2cccc(OCC)c2O)c1O was run?
A: 28.9 µM

Q: Which TGI does the source give for Cc1c2c(cc3c1C(=O)C(=O)C([C@@H](C)CO)=C3O)C(C)(C)CCC2 here?
A: 30.6 µM

Q: How did the TGI turn out when C[N+]12CCCCC1C(COc1cccc3cccnc13)CCC2 (configuration not stated) was run?
A: > 100 µM

Q: For Cc1ccc(S(=O)(=O)NC(=O)NCc2ccc(S(N)(=O)=O)cc2)cc1, which TGI is on record?
A: > 100 µM

Q: For NC(=O)NC1NC(=O)NC1=O (configuration not stated), which TGI is on record?
A: > 100 µM

Q: With CC[C@@]1(O)C(=O)OCc2c1cc1n(c2=O)Cc2c-1nc1ccccc1c2/C=N\NC(=O)C[n+]1ccccc1 as the compound, how does the TGI read?
A: > 66.3 µM

Q: How did the TGI turn out when COc1ccccc1C[C@@H]1OC2(C=CC(=O)CC2SC(=O)c2ccccc2)O[C@H]1Cc1ccccc1OC (some centres not stated) was run?
A: 3.14 µM

Q: Which TGI does the source give for COc1ccc(CC2Cc3ccccc3CCN2)cc1OC (configuration not stated) here?
A: > 50 µM

Q: How did the TGI turn out when CN(C)CCn1c(=O)c2ccc(NCCNCCO)c3c(=O)c4ccccc4n(c1=O)c23 was run?
A: 4.6 µM

Q: OCC1OC(NC(=S)NCCC(F)(F)C(F)(F)C(F)(F)C(F)(F)C(F)(F)C(F)(F)F)C(O)C(O)C1O (configuration not stated) was tested. Which TGI did it give?
A: > 100 µM

Q: For CSC1=N/C(=C\c2ccc(C)cc2)C(=O)N1, which TGI is on record?
A: > 100 µM

Q: For COc1cc2c(cc1OCCCNC(=O)c1cc3ccccc3[nH]1)N=C[C@@H]1CCCN1C2=O, which TGI is on record?
A: > 34.3 µM

Q: For COC(=O)/C(C)=N/NC(=S)SC, which TGI is on record?
A: > 100 µM

Q: For CC1=CC[C@H](C[C@H](C#CCCCC2OCCO2)O[Si](C(C)C)(C(C)C)C(C)C)C(=O)CC1, which TGI is on record?
A: > 100 µM

Q: With CC1=NN(c2cccc(S(=O)(=O)O)c2)C2(C1)C(Cl)C(=O)N2c1nc2ccccc2s1 (configuration not stated) as the compound, how does the TGI read?
A: 22.2 µM

Q: For [O-][n+]1nc(N2CCOCC2)nc2ccccc21, which TGI is on record?
A: > 100 µM

Q: With COc1ccc(NC(=S)Nc2cc(C)ccn2)cc1 as the compound, how does the TGI read?
A: > 100 µM

Q: With Cc1sc2nc(N(C)C)oc(=O)c2c1C as the compound, how does the TGI read?
A: > 100 µM

Q: How did the TGI turn out when Cc1cccc(N/C(=C(/C(Cl)=C(Cl)Cl)[N+](=O)[O-])n2nnc3ccccc32)c1 was run?
A: 33.3 µM

Q: CN1CCC23c4c5ccc(Oc6nnnn6-c6ccccc6)c4OC2c2[nH]c4ccccc4c2CC3(O)C1C5 (configuration not stated) was tested. Which TGI did it give?
A: 5.3 µM

Q: For Cc1cn(C2OC(CO[Si](C)(C)C(C)(C)C)/C(=C\C#N)C2O[Si](C)(C)C(C)(C)C)c(=O)[nH]c1=O (configuration not stated), which TGI is on record?
A: > 100 µM

Q: Which TGI does the source give for C[C@]12CCC(O)CC1=CC[C@@H]1[C@@H]2CC[C@]2(C)C(O)[C@H](n3ccnc3)C[C@@H]12 (some centres not stated) here?
A: > 100 µM

Q: How did the TGI turn out when O=C(CC(O)(C(F)(F)F)C(F)(F)F)C(c1ccccc1)C(O)(C(F)(F)F)C(F)(F)F (configuration not stated) was run?
A: > 100 µM

Q: With CC(C)CCCC(C)[C@H]1CC[C@H]2n3c(nnc3-c3ccccc3)CCC[C@]12C (some centres not stated) as the compound, how does the TGI read?
A: 60.5 µM

Q: How did the TGI turn out when OC1=C2c3ccccc3NC2Oc2cc(F)ccc21 (configuration not stated) was run?
A: 38 µM

system: LOX IMVI melanoma; experiment: NCI anticancer screen, dose series, 48 h

Q: With CCOc1cccc(C=Nc2ccccc2SSc2ccccc2N=Cc2cccc(OCC)c2O)c1O as the compound, how does the TGI read?
A: 14.9 µM

Q: Cc1c2c(cc3c1C(=O)C(=O)C([C@@H](C)CO)=C3O)C(C)(C)CCC2 was tested. Which TGI did it give?
A: > 100 µM

Q: With C[N+]12CCCCC1C(COc1cccc3cccnc13)CCC2 (configuration not stated) as the compound, how does the TGI read?
A: > 100 µM

Q: How did the TGI turn out when Cc1ccc(S(=O)(=O)NC(=O)NCc2ccc(S(N)(=O)=O)cc2)cc1 was run?
A: > 100 µM

Q: How did the TGI turn out when NC(=O)NC1NC(=O)NC1=O (configuration not stated) was run?
A: > 100 µM
